The values that follow come from PubChem BioAssay (NCI).

Common to all, as to assay: inhibition of tumour cell growth, NCI panel, 48 h
The subject of experiment [1] is MDA-MB-435.
In experiment [2] the test system is SN12C renal.
The test system of experiment [3] is SW-620 colon.
Experiment [4] has as its system CAKI-1 renal.
Experiment [5] deals with MCF7 breast.
For experiment [6], the system named is ACHN renal.
For experiment [7], the system named is HOP-92 NSCLC.
In experiment [8] the test system is NCI/ADR-RES ovarian.
Experiment [9] concerns UO-31 renal.
Experiment [10] concerns DU-145 prostate.

Values joined by “and” are separate entries in the source; they are usually repeats but may differ in a detail not shown here. Equal values may be shown once.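 Where inhibition never reached the appropriate level, the endpoint shown equals the highest concentration tested. Otherwise, values were interpolated linearly from a five-concentration, 48-hour dose response in 96-well plates. GI50 is the concentration that inhibits growth by half. TGI is the concentration that stops growth completely.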 A value given as a limit tells only on which side of the number the result lay.

In the case of `C/C1=C\C/C=C(\C)[C@H]2CC(CC/C(C)=C/CC1)[C@](C)(C=O)O2`, the GI50 in [1] is 66.1 µM; in [2] it was more than 100 µM; in [3] it was 51.1 µM; in experiment [4], 36.4 µM; in experiment [5] it was 38.2 µM; in [6], more than 100 µM. Besides, the GI50 was 39.8 µM in experiment [7], more than 100 µM in experiment [8], more than 100 µM in experiment [9] and 79.8 µM in experiment [10]. For the same molecule, the TGI in [1] was more than 100 µM; in experiment [2], more than 100 µM; in experiment [3], more than 100 µM; in experiment [4] it was 99.2 µM; in experiment [5], 87.8 µM; in [6] it was more than 100 µM. The TGI in experiment [7], in experiment [8], in experiment [9] and in experiment [10] was more than 100 µM in each case.
For `NCCP(=O)(O)O`, the TGI in [1], in experiment [2], in [3], in experiment [4], in experiment [5] and in experiment [6] was more than 100 µM in each case. Moreover, the TGI in [7], in [8], in experiment [9] and in experiment [10] was more than 100 µM each time.
For `NC(Cc1ccnnc1)C(=O)O` (stereo not given), the TGI in experiment [1], in experiment [2], in experiment [3], in [4], in experiment [5] and in [6] was more than 100 µM each time. In addition, the TGI in [7], in [8], in [9] and in [10] was more than 100 µM each time.
`CCc1c(O)c2c(c(O)c1C(C)=O)C(=O)c1c(cc(O)c(C(=O)O)c1C(=O)O)C2=O`: the TGI in experiment [1], in [2], in [3], in experiment [4], in [5] and in experiment [6] was more than 100 µM throughout. In addition, the TGI in experiment [7], in [8], in experiment [9] and in [10] was more than 100 µM throughout.
For the molecule `COC(=O)OCc1ccc2c(c1)C(=O)c1c-2n(CCCBr)c(=O)c2cc([N+](=O)[O-])ccc12`, the GI50 in experiment [1] was more than 100 µM; in experiment [2] it was more than 100 µM; in experiment [3], more than 100 µM; in experiment [4], 35.5 µM; in experiment [5], more than 100 µM; in [6], 24.2 µM. Also, the GI50 was 28.9 µM in experiment [7], more than 100 µM in experiment [8], more than 100 µM in experiment [9] and more than 100 µM in experiment [10]. Moreover, the TGI in experiment [1] was more than 100 µM; in [2], more than 100 µM; in experiment [3] it was more than 100 µM; in [4], 75.4 µM; in experiment [5], more than 100 µM; in [6], 93.8 µM. The TGI in experiment [7] is 77.1 µM; in [8] it was more than 100 µM; in [9], more than 100 µM; in experiment [10], more than 100 µM.
On to `N#C/C(N)=C(\C#N)N=Cc1csc2ccccc12`, for which the GI50 in [1] was 36.2 µM; in experiment [2], 26.9 µM; in experiment [3] it was more than 100 µM; in [4], 43.3 µM; in experiment [5], 3.41 µM; in experiment [6], 29.9 µM. The GI50 in experiment [7] is 24.1 µM; in experiment [8] it was 32.4 µM; in [9] it was 91.2 µM; in [10], 29.6 µM. Also, the TGI in experiment [1], in experiment [2], in experiment [3], in experiment [4], in [5] and in experiment [6] was more than 100 µM in each case. Also, the TGI in experiment [7], in experiment [8], in experiment [9] and in [10] was more than 100 µM in each case.
With `Cc1cc(C)cc(Nc2ccc([N+](=O)[O-])c(NCCN3CCOCC3)n2)c1`, the TGI is 0.0115 µM in experiment [1]; more than 100 µM in [2]; more than 100 µM in experiment [3]; more than 100 µM in experiment [4]; more than 100 µM in experiment [5]; more than 100 µM in experiment [6]. Also, the figures for the TGI in [7], in experiment [9] and in [10] were 24.3 µM, more than 100 µM and more than 100 µM, respectively. For the same molecule, the GI50 is 0.0706 µM in experiment [2]; 0.00176 µM and 0.0147 µM in experiment [3]; 0.00163 µM in experiment [4]; 0.000327 µM in [5]; 0.0143 µM and 0.012 µM in experiment [6]; 0.000646 µM in [8].
Turning to `CNC(=O)OC1C(O[C@H]2C[C@H]3[C@@H]4CC=C5C[C@@H](O)CC[C@]5(C)[C@H]4CC[C@]3(C)[C@H]2[C@H](C)C(=O)CCC(C)C)OCC(O)C1OC1OCC(O)C(O)C1OC(=O)c1ccc(OC)cc1` (stereo not given in full), the GI50 in experiment [1] is 0.0203 µM; in [2], 2.64 µM; in experiment [3], 0.0122 µM; in experiment [4], 0.0676 µM; in [5], 0.0149 µM; in [6], 0.263 µM. The GI50 is 0.0209 µM in experiment [7], 7.1 µM in [8], 0.0766 µM in experiment [9] and 0.0246 µM in experiment [10]. The TGI in experiment [1] came out at 0.359 µM; in experiment [2] it was 6.83 µM; in experiment [3] it was 0.383 µM; in experiment [4] it was 1.04 µM; in experiment [5], 2.87 µM; in experiment [6] it was 5.13 µM. The TGI is 3.1 µM in [7], 27.5 µM in experiment [8], 0.241 µM in [9] and 6.12 µM in experiment [10].
On to `C1=C(c2ccccc2)C(c2ccc(OCCN3CCCCC3)cc2)Oc2ccccc21` (stereo not given), for which the GI50 in experiment [1] is 1.64 µM; in experiment [2], 1.92 µM; in experiment [3], 1.83 µM; in [4] it was 1.34 µM; in [5] it was 0.441 µM; in experiment [6], 1.66 µM. Besides, the GI50 in experiment [7] is 1.56 µM; in experiment [8], 2.4 µM; in experiment [9], 1.41 µM; in experiment [10] it was 2.73 µM. Also, the TGI in [1] turned out to be 3.03 µM; in [2] it was 3.73 µM; in experiment [3], 3.62 µM; in [4], 2.75 µM; in experiment [5], 1.88 µM; in experiment [6] it was 3.15 µM. The TGI in [7] turned out to be 3.25 µM; in experiment [8] it was 8.16 µM; in [9], 3.16 µM; in experiment [10], 9.12 µM.
